In PMC4527935 (Nature structural & molecular biology, 2015):

How the values were obtained:
[1] = biological target: T1, yeast AAC carrier 3 (yAAC3), mitochondrial ADP/ATP carrier (Saccharomyces cerevisiae, UniProt P18238); assay: NMR chemical shift titration; format: binding
[2] = biological target: T1, yeast AAC carrier 3 (yAAC3), mitochondrial ADP/ATP carrier; assay: ITC; format: binding

T1 sequence (P18238 whole entry): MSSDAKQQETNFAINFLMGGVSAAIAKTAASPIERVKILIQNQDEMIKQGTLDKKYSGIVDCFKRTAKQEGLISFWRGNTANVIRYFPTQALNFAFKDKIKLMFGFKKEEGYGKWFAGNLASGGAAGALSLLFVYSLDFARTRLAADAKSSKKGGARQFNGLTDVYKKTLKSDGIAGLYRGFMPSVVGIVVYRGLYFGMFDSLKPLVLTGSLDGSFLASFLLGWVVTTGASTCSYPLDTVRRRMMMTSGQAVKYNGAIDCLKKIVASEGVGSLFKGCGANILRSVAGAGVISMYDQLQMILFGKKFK

| SMILES | Kd [1] | Kd [2] |
| --- | --- | --- |
| Nc1ncnc2c1ncn2[C@@H]1O[C@H](COP(=O)(O)OP(=O)(O)O)[C@@H](O)[C@H]1O [ADP] | ~500 µM |  |
| C=C1[C@@H]2CC[C@H]3[C@]4(C)C[C@H](O[C@@H]5O[C@H](CO)[C@@H](OS(=O)(=O)O)[C@H](OS(=O)(=O)O)[C@H]5OC(=O)CC(C)C)CC(C(=O)O)(C(=O)O)[C@H]4CC[C@]3(C2)[C@H]1O [CATR, carboxyatractyloside] |  | 14.9 ± 9.6 µM |
